These results are taken from paper PMC12261321, “Inhibitors of the Bacterioferritin Ferredoxin Complex Dysregulate Iron Homeostasis and Kill and Biofilm-Embedded Cells” (ACS Infectious Diseases, 2025).

Converted amounts (≈) assume the structure as drawn.

Data set [1] is described as follows: Determination of compound aqueous solubility in M63 media. The format is physicochemical. Particulars: in M63 media at 35 °C. The procedure: Determination of Compound Aqueous Solubility. Compound stocks (100 mM in DMSO) were prepared from […]
powder and then further diluted with DMSO to prepare 20 mM working solutions, which were diluted as needed […]
in DMSO. 15 µL o f the DMSO solution was then d iluted to a final volume o f 1.0 mL in M63 media. Six solutions […]
were prepared for each compound, each with a distinct concentration and 1.5% DMSO (v/v). 700 µL of each […]
compound solution was transferred to a polystyrene 48-well plate (VWR), followed by acquisition of UV-vis […]
spectra (300 to 700 nm) with the aid of an Epoch 2 microplate reader (B i o Te k ). […]
Following the acquisition of UV-vis spectra, each of the wells in the plate was inspected under a […]
microscope for evidence of precipitation. Evidence of precipitation at any given concentration was determined by observing a shift in the baseline of the UV-vis spectra relative to the blank (M63 media) and/or evidence of visual precipitation with the aid of a micros cope. […]

Data set [2] concerns P. aeruginosa PAO1 biofilm. The experiment in a line: Pellicle biofilm assay, % survival of biofilm cells. Type of data set: cell-based. Particulars: for % Survival Biofilm, P. aeruginosa PAO1: 24 h; for biofilm cell death: 27 h old pellicle biofilms treated 24 h. The procedure: We studied the susceptibility of mature biofilms to treatment with analogues of 4-aminoisoindoline-1,3-dione using biofilms cultured at the […] interface (pellicles) using methodology reported previously. To determine the susceptibility of pellicle biofilms to inhibitors of the Pa Bfr–Bfd complex, we cultured 27 h old biofilms in PI media supplemented with 20 μM Fe, as presented in Experimental Methods. The mature biofilms were transferred onto glass coverslips by touching the pellicle with the surface of the coverslips. The coverslip-adhered biofilms were then exposed to treatment solution consisting of AB media supplemented with 20 μM Fe, 1.5% DMSO, 0.025% HPMC, and 4-aminoisoindoline-1,3-dione derivative or commercial antibiotic for 24 h. The biofilms were then harvested and washed, and the cells were dispersed into sterile PBS by vortexing in the presence of zirconia beads prior to plating and enumerating viable cells (CFU/mL) to calculate % cell survival.
Biofilm Assays. Pellicle biofilms formed by EYF P-expressing P. aeruginosa PAO1 wer e carried ou t as repo rted previously,13 with some modifications. Starter cultures were diluted to OD600 = 0.001 in 4 mL PI media supplement ed with 20 µM Fe , trans ferred to petri dishes (35 x 10 mm) and incubated statically for 27 h at 30 °C.
The pellicles were transferred onto circular microscope glass coverslips (12 mm diameter) by gently allowing the surface of a coverslip to contact the pellicle. Th e biofilm- attached coverslip was washed (3 x) by floating it on top of PBS with the biofilm exposed to the liquid and then placed on top of 1.5 mL AB challenge media in a well of a 12-well microplate, with the biofilm exposed to the media at 30 °C for 24 h. AB challenge media is AB minimal media supplemented with 1.5% DMSO, 0.025% HPMC, 20 μ M Fe, and 4-aminoisoindoline-1,3- dione […]
The 4-aminoisoindoline-1,3- dione derivative solutions were prep ared from powder as 10 mM st ock solutions in DMSO and then diluted in AB challenge media to the appropriate concentrations. Following the 24 h challenge, planktonic and loosely attached cells were washed 3 times by floating the coverslip-attached biofilms with the biofilm facing down into a petri d ish (60 x 15 mm) containing 15 mL PBS, and incubating for 5 min. The biofilm was removed from the coversli p and the cells releas ed f rom the extra cel lular matrix by placing th e cov erslip-attach ed biofi lm in a 50 mL conical tub e containing a 2-mL sup ension of zirconia beads (0.1 mm diam eter, BiosSpec Produ cts), 10 mL PBS, 1 mM MgSO4, 20 µg/mL alginate lyase and 40 µg/mL DNAse. The mixture was incubated for three min at room temperature, and then vigorously vortexed for four min. Following sedimentation of the zirconia beads, a 100 μ L aliquot was utilized for serial dilution in PBS and plating on PIA plates for viable cell enumeration (CFU/mL). […]

Where [3] appears, read: M63 media with 1.5% DMSO, 35 °C, aqueous buffer, kinetic from dmso stock.
Where [4] appears, read: biofilm challenged with 50 µM compound.
The mark [5] stands for this setting: biofilm challenged with 30 µM compound.
[6] abbreviates: biofilm challenged with 20 µM compound.

In general, solubility refers to the dissolved amount per volume that the medium holds. With `O=C1NC(=O)c2c(NCc3ccccc3O)cccc21` [Analog 11, 4-((2-Hydroxybenzyl)amino)isoindoline-1,3-dione], the solubility at 4 h in data set [1] (setting [3]) amounted to 200 µM (≈ 53.7 µg/mL). The “% Survival Biofilm, P. aeruginosa PAO1” value in data set [2] (setting [4]) turned out to be 87 ± 6%.

Turning to `O=C1NC(=O)c2c(NCc3ccc(Br)cc3O)cccc21` [EB-5-61], in data set [1], the solubility at 4 h amounted to 60 µM (≈ 20.8 µg/mL). The “% Survival Biofilm, P. aeruginosa PAO1” value in data set [2] (setting [4]) is 8 ± 2%.

Turning to `Cc1ccc(CNc2cccc3c2C(=O)NC3=O)c(O)c1` [EB-5-69], the solubility at 4 h in data set [1] is listed as 80 µM (≈ 22.6 µg/mL). In data set [2] (setting [4]), the “% Survival Biofilm, P. aeruginosa PAO1” value was found to be 64 ± 1%.

The compound `Cc1cccc(CNc2cccc3c2C(=O)NC3=O)c1O` [EB-5-70] gave a solubility at 4 h in data set [1] of 100 µM (≈ 28.2 µg/mL). For the same compound, the “% Survival Biofilm, P. aeruginosa PAO1” value in data set [2] (setting [4]) worked out at 105 ± 2%.

In data set [1], `O=C1NC(=O)c2c(NCc3c(O)cccc3F)cccc21` [EB-5-71] gave a solubility at 4 h of 150 µM (≈ 42.9 µg/mL). For the same compound, in data set [2] (setting [4]), the “% Survival Biofilm, P. aeruginosa PAO1” value stood at 52 ± 10%.

Turning to `O=C1NC(=O)c2c(NCc3c(O)cccc3Br)cccc21` [EB-5-72], the solubility at 4 h in data set [1] is given as 60 µM (≈ 20.8 µg/mL). The “% Survival Biofilm, P. aeruginosa PAO1” value in data set [2] (setting [4]) is given as 45 ± 0.4%.

In turn, `O=C1NC(=O)c2c(NCc3cccc(Br)c3O)cccc21` [EB-5-73] showed a solubility at 4 h in data set [1] of 40 µM (≈ 13.9 µg/mL). The “% Survival Biofilm, P. aeruginosa PAO1” value in data set [2] (setting [5]) is listed as 78 ± 14%.

The compound `O=C1NC(=O)c2c(NCc3cccc(F)c3O)cccc21` [EB-5-80] had a solubility at 4 h in data set [1] of 100 µM (≈ 28.6 µg/mL). Further, in data set [2] (setting [4]), the “% Survival Biofilm, P. aeruginosa PAO1” value amounted to 106 ± 23%.

`O=C1NC(=O)c2c(NCc3cc(F)ccc3O)cccc21` [JAG-5-7] returned a solubility at 4 h in data set [1] (setting [3]) of 180 µM (≈ 51.5 µg/mL). In addition, the “% Survival Biofilm, P. aeruginosa PAO1” value in data set [2] (setting [4]) is on record as 85 ± 16%.

In data set [1], `O=C1NC(=O)c2c(NCc3cc(Cl)ccc3O)cccc21` [KM-5-25, 4-((5-Chloro-2-hydroxybenzyl)amino)isoindoline-1,3-dione] gave a solubility at 4 h of 80 µM (≈ 24.2 µg/mL). In addition, the biofilm cell death entry in data set [2] is reported as “concentration-dependent biofilm cell death”. For the same compound, the “% Survival Biofilm, P. aeruginosa PAO1” value in data set [2] (setting [4]) stood at 17 ± 6%.

The compound `O=C1NC(=O)c2c(NCc3c(O)cccc3Cl)cccc21` [KM-5-29] returned a solubility at 4 h in data set [1] of 60 µM (≈ 18.2 µg/mL). For the same compound, the “% Survival Biofilm, P. aeruginosa PAO1” value in data set [2] (setting [4]) is given as 50 ± 7%.

`O=C1NC(=O)c2c(NCc3cccc(Cl)c3O)cccc21` [KM-5-30]: the solubility at 4 h in data set [1] is recorded as 80 µM (≈ 24.2 µg/mL). Moreover, in data set [2] (setting [4]), the “% Survival Biofilm, P. aeruginosa PAO1” value amounted to 72 ± 11%.

`O=C1NC(=O)c2c(NCc3cc(Br)ccc3O)cccc21` [KM-5-35, 4-((5-Bromo-2-hydroxybenzyl)amino)isoindoline-1,3-dione] came in with a solubility at 4 h in data set [1] of 60 µM (≈ 20.8 µg/mL). The biofilm cell death result in data set [2] is recorded as “concentration-dependent biofilm cell death”. In addition, the “% Survival Biofilm, P. aeruginosa PAO1” value in data set [2] (setting [4]) stood at 10 ± 4%.

In the case of `O=C1NC(=O)c2c(NCc3cc(Cl)ccc3O)ccc(Br)c21` [SB-16-51], the solubility at 4 h in data set [1] was 20 µM (≈ 7.63 µg/mL). The “% Survival Biofilm, P. aeruginosa PAO1” value in data set [2] (setting [6]) turned out to be 53 ± 9%.

On to `CC(C)(C)c1ccc(O)c(CNc2cccc3c2C(=O)NC3=O)c1` [SB-16-53], for which the solubility at 4 h in data set [1] (setting [3]) came out at 30 µM (≈ 9.73 µg/mL). Moreover, the “% Survival Biofilm, P. aeruginosa PAO1” value in data set [2] (setting [5]) came out at 48 ± 10%.

As to `O=C1NC(=O)c2c(NCc3cc(F)ccc3O)ccc(Br)c21` [SB-16-67], the solubility at 4 h in data set [1] came out at 40 µM (≈ 14.6 µg/mL).

With `Cc1cc(Br)cc(CNc2cccc3c2C(=O)NC3=O)c1O` [SB-16-106], the solubility at 4 h in data set [1] is on record as 30 µM (≈ 10.8 µg/mL). Besides, the “% Survival Biofilm, P. aeruginosa PAO1” value in data set [2] (setting [5]) turned out to be 42 ± 9%.

`O=C1NC(=O)c2c(NCc3cc(Br)c(F)cc3O)cccc21` [SB-16-112] registered a solubility at 4 h in data set [1] of 30 µM (≈ 11 µg/mL). Further, the “% Survival Biofilm, P. aeruginosa PAO1” value in data set [2] (setting [5]) is recorded as 15 ± 0.7%.

Consider `O=C1NC(=O)c2c(NCc3cc(Br)cc(F)c3O)cccc21` [SB-16-118], for which, in data set [1], the solubility at 4 h is recorded as 40 µM (≈ 14.6 µg/mL). Moreover, in data set [2] (biofilm challenged with 40 µM compound), the “% Survival Biofilm, P. aeruginosa PAO1” value stood at 13 ± 2%.

On to `O=C1NC(=O)c2c(NCc3cc(Br)ccc3O)ccc(Cl)c21` [SB-16-124], for which, in data set [1], the solubility at 4 h was 20 µM (≈ 7.63 µg/mL). In data set [2] (setting [6]), the “% Survival Biofilm, P. aeruginosa PAO1” value is recorded as “Not active”.

In the case of `O=C1NC(=O)c2c(NCc3cc(Br)cc(O)c3O)cccc21` [SB-16-136], the solubility at 4 h in data set [1] is reported as 60 µM (≈ 21.8 µg/mL). Besides, the “% Survival Biofilm, P. aeruginosa PAO1” value in data set [2] (setting [4]) stood at 63 ± 2%.

With `O=C1NC(=O)c2c(NCc3cc(Br)c(O)cc3O)cccc21` [SB-16-137], in data set [1], the solubility at 4 h is 80 µM (≈ 29.1 µg/mL). Also, the “% Survival Biofilm, P. aeruginosa PAO1” value in data set [2] (setting [4]) is 78 ± 21%.

In turn, `Cc1cc(Cl)cc(CNc2cccc3c2C(=O)NC3=O)c1O` [SB-16-156] returned a solubility at 4 h in data set [1] of 40 µM (≈ 12.7 µg/mL). The “% Survival Biofilm, P. aeruginosa PAO1” value in data set [2] (setting [5]) is 44 ± 18%.

In the case of `O=C1NC(=O)c2c(NCc3cc(Cl)c(O)cc3O)cccc21` [SB-16-160], the solubility at 4 h in data set [1] is on record as 80 µM (≈ 25.5 µg/mL). Moreover, the “% Survival Biofilm, P. aeruginosa PAO1” value in data set [2] (setting [4]) is recorded as “Not active”.

In turn, `O=C1NC(=O)c2c(NCc3cc(Cl)cc(O)c3O)cccc21` [SB-16-168] gave a solubility at 4 h in data set [1] (setting [3]) of 40 µM (≈ 12.7 µg/mL). Moreover, in data set [2] (setting [4]), the “% Survival Biofilm, P. aeruginosa PAO1” value is reported as “Not active”.

Turning to `Cc1cc(CNc2cccc3c2C(=O)NC3=O)c(O)cc1Br` [SB-16-183], the solubility at 4 h in data set [1] was 20 µM (≈ 7.22 µg/mL). Also, the “% Survival Biofilm, P. aeruginosa PAO1” value in data set [2] (setting [6]) is recorded as 43 ± 3%.

In the case of `O=C1NC(=O)c2c(NCc3cc(Br)cc(O)c3O)ccc(Br)c21` [SB-16-250], the solubility at 4 h in data set [1] is on record as 20 µM (≈ 8.84 µg/mL). Also, the “% Survival Biofilm, P. aeruginosa PAO1” value in data set [2] (setting [6]) is reported as “Not active”.

Consider `O=C1NC(=O)c2c(NCc3ccc4c(c3)COC4)cccc21` [SB-17-80], for which the solubility at 4 h in data set [1] was found to be 20 µM (≈ 5.89 µg/mL). Moreover, the “% Survival Biofilm, P. aeruginosa PAO1” value in data set [2] (setting [6]) is recorded as “Not active”.

For the compound `O=C1NC(=O)c2c(NCc3cccc4c3CCN4)cccc21` [SB-17-140], in data set [1] (setting [3]), the concentration in solution (solubility at 4 h) came to 100 µM (≈ 29.3 µg/mL). For the same compound, the “% Survival Biofilm, P. aeruginosa PAO1” value in data set [2] (setting [4]) was “Not active”.
